Source: US20250205176A1, “SOLID COMPOSITION CONTAINING FORM II-TYPE CRYSTAL OF REDUCED COENZYME Q10” (KANEKA CORPORATION, priority 2022, published 2025)

Assay: Reference Example: half-life period and stabilization degree from QH residual rate after 14 days storage
Format: physicochemical
Conditions: for Half-life Period: number of days required for the QH residual rate to reach 50%, from storage at 25° C. and 60% RH for 14 days
Experimental: The reduced coenzyme Q10 Form I crystal (Form I-crystal), the particulate solid composition produced using the reduced coenzyme Q10 Form I crystal in the same manner as in Comparative Example 1 (Form I-stabilized composition), the reduced coenzyme Q10 Form II crystal (Form II-crystal), and the particulate solid composition produced using the reduced coenzyme Q10 Form II crystal in the same manner as in Example 1 (A-1) (Form II-stabilized composition) were stored at 25° C. and 60% RH for 14 days. From the QH residual rate after storage, the half-life period, which is the number of days required for the QH residual rate to reach 50%, and the stabilization degree, which is the ratio of the half-life period of the stabilized composition to the half-life period of each crystal, were determined and shown in Table 17.

Row | Compound | Half-life Period | stability relative to the Form I crystal (25° C. and 60% RH)
1 | COc1c(O)c(C)c(C/C=C(\C)CC/C=C(\C)CC/C=C(\C)CC/C=C(\C)CC/C=C(\C)CC/C=C(\C)CC/C=C(\C)CC/C=C(\C)CC/C=C(\C)CCC=C(C)C)c(O)c1OC [Form I - crystal, reduced coenzyme Q10] | 14 days | 
2 | COc1c(O)c(C)c(C/C=C(\C)CC/C=C(\C)CC/C=C(\C)CC/C=C(\C)CC/C=C(\C)CC/C=C(\C)CC/C=C(\C)CC/C=C(\C)CC/C=C(\C)CCC=C(C)C)c(O)c1OC [Form II - crystal, reduced coenzyme Q10] | 189 days | 14 times
